The text below walks through data of patent EP2090164B1, “A rodenticide bait based on a synergetic association of anticoagulant active ingredients” (priority 2008, dated 2009).

Each structure is given as a SMILES string.

Series [1] relates to mouse. The settings on record: active ingredient; cited from earlier work.
Series [2] deals with rat. The settings on record: active ingredient; cited from earlier work.
Series [3] relates to cat. The settings on record: active ingredient; cited from earlier work.
Series [4] concerns dog. The settings on record: active ingredient; cited from earlier work.
Series [5] deals with infesting murine species. It is filed as in vivo. The settings on record: same amount of anticoagulant.
For series [6] the following is noted: WHO, 1995, cited from earlier work.
For series [7] the following is noted: cited from earlier work.
Series [8] has as its system Mus musculus. The settings on record: both genders and all ages of the Mus musculus; cited from earlier work.
The test system of series [9] is Rattus norvegicus. Particulars: young prepubertal; females of Rattus norvegicus; cited from earlier work.
The subject of series [10] is murine population. The settings on record: in vivo; cited from earlier work.
Setting [11] is: liver and kidney, two-phase course.

In the case of `O=c1oc2ccccc2c(O)c1C1CC(c2ccc(-c3ccc(Br)cc3)cc2)Cc2ccccc21` (stereo not drawn) [BRODIFACOUM, brodifacoum], the “a.p. LD50” value was 0.4 mg/kg in series [1], 0.4 mg/kg in [2], 25 mg/kg in series [3] and 0.25 to 3.6 mg/kg in series [4].

As to `O=c1oc2ccccc2c(O)c1C(CC(O)c1ccc(-c2ccc(Br)cc2)cc1)c1ccccc1` (stereo not drawn) [BROMADIOLON, bromadiolon], the “a.p. LD50” value in series [1] is 1.75 mg/kg; in [2], 1.125 mg/kg; in [3], more than 25 mg/kg; in series [4], more than 10.0 mg/kg. Moreover, the “disinfesting action with respect to that of brodifacoum” value in series [5] was “inferior”.

As to `O=c1oc2ccccc2c(O)c1C1CC(c2ccc(-c3ccccc3)cc2)Cc2ccccc21` (stereo not drawn) [DIPHENACOUM, diphenacoum], the “a.p. LD50” value is given as 0.8 mg/kg in series [1], 1.8 mg/kg in series [2], more than 100 mg/kg in series [3] and more than 50.0 mg/kg in series [4]. The “elimination from both liver and kidney, rather rapid initial phase” value in series [6] (setting [11]) was 3 days. Besides, the “elimination from both liver and kidney, second, much slower, phase” value in series [6] (setting [11]) is 118 to 120 days. Also, the “half-life in the pancreas” value in [6] (pancreas) is listed as 182 days. Also, in series [5], the “disinfesting action with respect to that of brodifacoum” value is reported as “inferior”. Further, the half-life in man in series [7] is 11.5 days.

For the compound `OCC(O)CCl` (stereo not drawn) [α-chlorohydrin], the activity as chemosterilant entry in [8] and in series [9] was “not active” each time. Also, the “eliminating of the treated murine population” value in series [10] is given as “up to 85%”.
